Experimental data reported in PubChem BioAssay (NCI).
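Five concentrations, 48 hours, 96-well plates. The concentration for full growth arrest is given as TGI.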

Legend:
Experiment in all cases: NCI tumour cell line growth inhibition, 48 h
NCI-H23 lung = tested on: NCI-H23 lung
SK-MEL-5 melanoma = tested on: SK-MEL-5 melanoma
T-47D breast = tested on: T-47D breast
IGROV1 ovarian = tested on: IGROV1 ovarian
PC-3 prostate = tested on: PC-3 prostate
CAKI-1 renal = tested on: CAKI-1 renal
OVCAR-3 ovarian = tested on: OVCAR-3 ovarian
SNB-19 CNS = tested on: SNB-19 CNS
SF-539 CNS = tested on: SF-539 CNS
CCRF-CEM leukemia = tested on: CCRF-CEM leukemia
OVCAR-4 ovarian = tested on: OVCAR-4 ovarian
SN12C renal = tested on: SN12C renal
COLO 205 colon = tested on: COLO 205 colon

Measured: TGI

CC[n+]1[b-](C(C)(C)C)n(/N=C(\C)C(C)(C)C)[b-](C(C)(C)C)[n+]1CC
not listed: COLO 205 colon
> 100 µM: all other assays above

Cc1cc(S(=O)(=O)Nc2nc(N)n(C)n2)c(S)cc1Cl
> 10 µM: all assays above

Cc1ccc(S(=O)(=O)C2=c3ncccc3=C3C(=O)c4ccccc4C(=O)C32)cc1 (stereo unspecified)
79.9 µM: SNB-19 CNS
> 62.2 µM: IGROV1 ovarian
> 15 µM: SK-MEL-5 melanoma
46.1 µM: SF-539 CNS
64.4 µM: OVCAR-4 ovarian
> 100 µM: all other assays above

CC(C)(C)OC(=O)C(C1NC(C(=O)O)C(C)(C)S1)N1C(=O)c2ccccc2C1=O (stereo unspecified)
> 100 µM: all assays above

COC(=O)C1=NN2c3ccccc3CN([C@@H](C)c3ccccc3)C(=O)[C@@H]2C1
77.7 µM: CAKI-1 renal
32.7 µM: SK-MEL-5 melanoma
97.9 µM: OVCAR-3 ovarian
40.1 µM: T-47D breast
26.1 µM: OVCAR-4 ovarian
> 100 µM: all other assays above

CC(=O)OCCn1c(Cc2ccc([N+](=O)[O-])cc2)nn(C(C)=O)c1=O
> 100 µM: all assays above

COc1ccc(-c2nc3ccc(C)cc3o2)c(OC)c1
87.5 µM: NCI-H23 lung
> 96.1 µM: T-47D breast
40.9 µM: SF-539 CNS
74.1 µM: OVCAR-4 ovarian
46.9 µM: OVCAR-3 ovarian
65.8 µM: CCRF-CEM leukemia
61.4 µM: SNB-19 CNS
76.3 µM: IGROV1 ovarian
67.1 µM: PC-3 prostate
76.1 µM: CAKI-1 renal
40.7 µM: COLO 205 colon
> 82.1 µM: SN12C renal
43.3 µM: SK-MEL-5 melanoma

C[C@H](CCc1nc(C#N)c(N)o1)[C@H]1CC[C@H]2[C@@H]3[C@@H](O)CC4C[C@@H](O)CC[C@]4(C)[C@H]3C[C@@H](O)[C@]12C (stereo partly specified)
59.5 µM: SF-539 CNS
> 100 µM: CAKI-1 renal
33.2 µM: IGROV1 ovarian
40.5 µM: COLO 205 colon
> 25.2 µM: CCRF-CEM leukemia
49.1 µM: PC-3 prostate
58.5 µM: NCI-H23 lung
40.9 µM: SK-MEL-5 melanoma
85.6 µM: T-47D breast
> 79.6 µM: SN12C renal
> 87.6 µM: OVCAR-4 ovarian
> 56.9 µM: OVCAR-3 ovarian
57.5 µM: SNB-19 CNS

CC(=O)OC1CC(OC2C(O)CC(OC3C(O)CC(OC4CCC5(C)C(CCC6C5CC(O)C5(C)C(C7=CC(=O)OC7)CCC65O)C4)OC3C)OC2C)OC(C)C1O (stereo unspecified) (tested in a mixture with another compound)
> 100 µM: CCRF-CEM leukemia
0.0838 µM: SK-MEL-5 melanoma
0.123 µM: PC-3 prostate
0.458 µM: SNB-19 CNS
0.41 µM: T-47D breast
0.0818 µM: CAKI-1 renal
0.176 µM: IGROV1 ovarian
0.0538 µM: OVCAR-4 ovarian
0.113 µM: SF-539 CNS
0.0507 µM: OVCAR-3 ovarian
0.0346 µM: NCI-H23 lung
0.168 µM: COLO 205 colon

Cc1cccc(C)c1NC(=S)/N=C/C1=C(O)c2ccccc2C1=O
> 59.9 µM: SF-539 CNS
> 65.4 µM: OVCAR-4 ovarian
68.9 µM: CAKI-1 renal
> 40.4 µM: COLO 205 colon
> 79.4 µM: IGROV1 ovarian
29.3 µM: SK-MEL-5 melanoma
59.2 µM: NCI-H23 lung
> 100 µM: all other assays above

O=[N+]([O-])c1cc(Cl)ccc1S(=O)(=O)c1ccccc1
> 100 µM: all assays above

CCCNc1[nH]c(C(C)=O)c(N)c1C(=S)Nc1ccccc1
52.3 µM: SK-MEL-5 melanoma
74.5 µM: OVCAR-4 ovarian
65.4 µM: SF-539 CNS
> 100 µM: all other assays above

CS(=O)(=O)C(=Cc1ccccc1Cl)S(C)(=O)=O
> 100 µM: all assays above

CNC(=O)N(CCC#N)CCN(CCN(C(=O)NC)c1ccccc1)C(=O)NC
> 100 µM: all assays above

Nc1nc(Cl)cc(Nc2ccc3c(c2)CCC3)n1
> 100 µM: all assays above

Nc1nc(Cl)c2ncn(Cc3ccccc3CCl)c2n1
5.62 µM: SN12C renal
20.4 µM: CAKI-1 renal
83.9 µM: T-47D breast
27.5 µM: SNB-19 CNS
8.84 µM: NCI-H23 lung
68.1 µM: PC-3 prostate
6.47 µM: OVCAR-4 ovarian
10.9 µM: OVCAR-3 ovarian
38.2 µM: SF-539 CNS
26.5 µM: SK-MEL-5 melanoma
> 100 µM: all other assays above

CCOC(=O)c1sc2nc(SC)nc(Nc3ccc(OC)c(OC)c3)c2c1N
56 µM: SNB-19 CNS
> 100 µM: all other assays above

C=CCCCC1(C)CCCCNC1=O (stereo unspecified)
> 10 µM: all assays above

CCCCCCCCCCCCCCCCCCNc1ccn(C2OC(CO)C(OP(=O)(O)OCC3CCC(n4ccc(N)nc4=O)O3)C2O)c(=O)n1 (stereo unspecified)
58.1 µM: CCRF-CEM leukemia
40.6 µM: PC-3 prostate
> 100 µM: all other assays above

CC(C)(C)SC1=CCC[C@@H](P(=O)(c2ccccc2)c2ccccc2)[C@@H]2CCC[C@@H]12
31.4 µM: OVCAR-4 ovarian
60.6 µM: CCRF-CEM leukemia
29.3 µM: SN12C renal
32.7 µM: OVCAR-3 ovarian
36 µM: IGROV1 ovarian
28.6 µM: PC-3 prostate
32.9 µM: CAKI-1 renal
33.6 µM: NCI-H23 lung
30.9 µM: SNB-19 CNS
36.5 µM: SF-539 CNS
33.3 µM: T-47D breast
34.1 µM: COLO 205 colon
32.8 µM: SK-MEL-5 melanoma

COc1cc(OC)c(/C=N/N=C(\N)NO)c(OC)c1
> 100 µM: all assays above

CCOC(=O)Cn1nc2ccc(Nc3nc4ccccc4nc3C(=O)OCC)cc2n1
52.8 µM: SF-539 CNS
> 100 µM: all other assays above

O=S(=O)(Nc1ccccc1S(=O)(=O)c1ccccc1)c1ccccc1
> 100 µM: all assays above

O=C(O)/C(=C\c1ccccc1)Cc1ccccc1
> 100 µM: all assays above

Cn1cc(-c2ccc(CCOC3CCCCO3)cc2)c2c(C#N)cccc21 (stereo unspecified)
67.5 µM: COLO 205 colon
> 100 µM: all other assays above

CC(=O)CN=C(C)NNc1ccc([N+](=O)[O-])cc1[N+](=O)[O-]
> 100 µM: all assays above
